{"source": "patent US12298318B2", "about": "“Targeting ligands for tau pathology” (Texas Children's Hospital, priority 2019, dated 2025)", "key": {"[1]": {"system": "hyperphosphorylated SH SY5Y cells", "experiment": "Saturation binding of Cy5-labeled aptamer, apparent Kd, SH-SY5Y cells", "design": "species or system human", "conditions": "read-out: apparent equilibrium dissociation constant (Kdapp)", "method": "(§1) The apparent equilibrium dissociation constants (Kdapp) were measured by serial dilution of aptamer solutions with target hyperphosphorylated, non-target differentiated, and undifferentiated SH-SY5Y cells. The affinity of these aptamers was also tested with another immortal neural progenitor stem cell line, ReN-VM, in hyperphosphorylative and non-hyperphosphorylative conditions. The Kdapp for Tau_1 (SEQ ID NO: 5; DONGYBM) and Tau_3 (SEQ ID NO: 6; MUSQD) with hyperphosphorylated SH SY5Y cells is 0.167±0.015 nM and 0.194±0.032 nM; and for the ReN-VM cells 318.15±46.2 nM and 234.24±38.6 nM, respectively (FIG. 3).\n(§2) Hyperphosphorylation. Hyperphosphorylation was induced in SH-SY5Y cells by addition of 30 nM OA (Sigma Aldrich, St. Louis, MO, #459620) in growth medium with 30 μM RA for 24 h. ReNcell VM were hyperphosphorylated using 100 nM QA (SigmaAldrich, St. Louis, MO, #P63204) in culture media for 24 h.\n(§3) Aptamer binding studies. Aptamer binding studies were conducted with undifferentiated, differentiated, and hyperphosphorylated SH SY5Y and ReN cell VM grown in 96-wells seeded at 10000 per well. […]"}, "[2]": {"system": "hyperphosphorylative SH-SY5Y cells", "experiment": "Binding studies with Cy5-labeled aptamer (cell staining)", "format": "cell-based, human", "conditions": "50 nM, 2 h at 4° C. (FIG. 2C)", "description": "Negative selection eliminated certain sequences that were not specific to the hyperphosphorylative state or have a propensity for hepatocyte uptake. However, the relative abundance of key sequences increased steadily throughout the whole process. The 23 most abundant sequences at round 26 were identified, and their abundance throughout the SELEX process as calculated using AptaAligner is shown in FIG. 2B. The sequence Tau_1 (SEQ ID NO: 5; DONGYBM) was the most prevalent at cycle 26, representing 20.6% of the thioaptamers present. A single base difference from this sequence, Tau_3 (SEQ ID NO: 6; MUSQD), was the second most represented sequence (10.4%). […] The secondary structure of the aptamers Tau_1 (SEQ ID NO: 5; DONGYBM) and Tau_3 (SEQ ID NO: 6; MUSQD) calculated using mfold is shown in FIG. 2D. The sequences present at the final round were grouped by hierarchical clustering and sequence homology using the multiple sequence alignment code MAFFT showing five distinct families, which were also presented as a cladogram (using the Clustal Omega) showing the common ancestry between these five aptamers families (FIG. 2E).\nImmunocytochemistry. […]"}, "[3]": {"system": "OA treated differentiated SH-SY5Y cells", "experiment": "Cell-SELEX sequence abundance by next-generation sequencing", "design": "species or system human", "conditions": "SELEX cycle 26", "method": "Aptamer screening was performed using the cell-SELEX approach on differentiated SH-SY5Y cells in a hyperphosphorylative state. FIGS. 2A-2E describe how cell-SELEX was used to identify biomarkers of onset the of AD. OA treated differentiated SH-SY5Y cells were used as a surrogate for hyperphosphorylative neurons to screen DNA aptamers that specifically recognize the differences between the surfaces of treated and untreated cells, using the cell-SELEX methodology modified to capture membrane binding aptamers. A total of 26 cell SELEX cycles were performed. […]\nNegative selection eliminated certain sequences that were not specific to the hyperphosphorylative state or have a propensity for hepatocyte uptake. […] The 23 most abundant sequences at round 26 were identified, and their abundance throughout the SELEX process as calculated using AptaAligner is shown in FIG. 2B. […] The secondary structure of the aptamers Tau_1 (SEQ ID NO: 5; DONGYBM) and Tau_3 (SEQ ID NO: 6; MUSQD) calculated using mfold is shown in FIG. 2D. […]\nNext-Generation Sequencing (NGS). […] Equimolar quantities of the recovered TA sequences over the range were pooled together and sequenced by Next-Gen DNA sequencing using Ion318 chip (ThermoFisher, Waltham, MA). […]"}, "ReN-VM cells": {"system": "ReN-VM cells", "experiment": "Saturation binding of Cy5-labeled aptamer, apparent Kd, ReN-VM cells", "conditions": "read-out: apparent equilibrium dissociation constant (Kdapp)", "method": "as §1, §2, §3"}, "[4]": {"system": "hyperphosphorylated SH-SY5Y cells", "experiment": "Aptamer-based pulldown and mass spectrometry target identification", "design": "species or system human", "conditions": "pulldown / immunoprecipitation, mass-spectrometry", "method": "To characterize the binding target of the aptamers, an aptamer-based pulldown assay was performed, along with aptamer-based immunoprecipitation, followed by mass-spectrometry. The assay was performed for both Tau_1 (SEQ ID NO: 5; DONGYBM) and Tau_3 (SEQ ID NO: 6; MUSQD) aptamers. […] The surface expression of Keratin 6a, 6b was similar on wild-type and transgenic tissue sections, whereas the VIM expression was higher in the Tg mice (FIG. 6C).\nTarget Identification. The protein targets of Tau_1 (SEQ ID NO: 5; DONGYBM), Tau_3 (SEQ ID NO: 6; MUSQD), Tau-4, and Tau-5 were identified by affinity-pull down using the selected aptamers as the capturing reagent followed by mass-spectroscopy. A scrambled DNA sequence, R2, was used as a control. The hyperphosphorylated SH-SY5Y cells, at 90-95% confluence, were washed with cold PBS buffer and incubated with biotinylated selected aptamers with […] each at 4° C. in PBS, respectively. After 2 hours of gentle agitation, SH-SY5Y cells were cross-linked with 1% formaldehyde for 10 min at rt. The formaldehyde cross-linking was quenched with glycine. Cells were scraped from the plate, washed, lysed with lysing buffer (Thermofisher Scientific, #87787), and treated with protease inhibitor mixture. The lysates were freeze-thawed for 30 min on ice and cleared by centrifuging at 10,000×g for 2 min at 4° C. […] Each sample was analyzed in triplicate. […]"}, "MAO-B enzyme": {"molecular_target": "T1, MAO-B enzyme (Homo sapiens, UniProt P27338)", "T1 sequence (P27338 1-520)": "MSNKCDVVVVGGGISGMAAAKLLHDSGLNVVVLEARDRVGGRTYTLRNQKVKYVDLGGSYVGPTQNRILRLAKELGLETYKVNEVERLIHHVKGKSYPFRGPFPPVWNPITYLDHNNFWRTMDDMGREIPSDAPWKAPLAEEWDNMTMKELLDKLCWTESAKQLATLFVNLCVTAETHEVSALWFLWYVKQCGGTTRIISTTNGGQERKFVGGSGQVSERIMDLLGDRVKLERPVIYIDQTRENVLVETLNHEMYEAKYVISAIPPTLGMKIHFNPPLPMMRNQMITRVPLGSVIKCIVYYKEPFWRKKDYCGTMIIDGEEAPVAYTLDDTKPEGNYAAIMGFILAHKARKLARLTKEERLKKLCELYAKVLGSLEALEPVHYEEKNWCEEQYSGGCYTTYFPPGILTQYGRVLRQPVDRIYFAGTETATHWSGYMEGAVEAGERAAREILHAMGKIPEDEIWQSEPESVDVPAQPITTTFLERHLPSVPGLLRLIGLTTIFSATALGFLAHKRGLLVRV", "conditions": "brain; cited from earlier work"}, "tetrameric VIM": {"molecular_target": "tetrameric VIM (Homo sapiens, UniProt P08670)", "sequence (P08670 whole entry)": "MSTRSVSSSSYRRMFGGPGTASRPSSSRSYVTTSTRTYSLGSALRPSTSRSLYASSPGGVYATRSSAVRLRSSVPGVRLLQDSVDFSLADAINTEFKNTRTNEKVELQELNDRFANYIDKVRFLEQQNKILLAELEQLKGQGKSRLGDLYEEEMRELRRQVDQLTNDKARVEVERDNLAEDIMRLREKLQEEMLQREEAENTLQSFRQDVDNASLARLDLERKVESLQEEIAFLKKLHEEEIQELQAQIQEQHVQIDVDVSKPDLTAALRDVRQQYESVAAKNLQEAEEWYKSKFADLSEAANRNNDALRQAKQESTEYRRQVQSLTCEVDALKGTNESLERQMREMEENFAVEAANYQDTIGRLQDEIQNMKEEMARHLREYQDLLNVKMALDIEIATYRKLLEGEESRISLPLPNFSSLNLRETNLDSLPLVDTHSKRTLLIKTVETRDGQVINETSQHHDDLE", "conditions": "cited from earlier work"}}, "data": [{"molecule": "Tau_3: DNA thioaptamer CCCCCCACGGTCTCCGCTCCACAAGTCCAC", "values": [{"measurement": "Kd", "setting": "[1]", "value": "0.194 ± 0.032", "unit": "nM"}, {"measurement": "binding of Cy5-labeled aptamer to cells", "setting": "[2]", "value": "elevated binding levels with the hyperphosphorylative cells"}, {"measurement": "fraction of the thioaptamers present (abundance)", "setting": "[3]", "value": 10.4, "unit": "%"}, {"measurement": "Kd", "setting": "ReN-VM cells", "value": "234 ± 38.6", "unit": "nM"}, {"measurement": "possible binding targets by abundance score ranking", "setting": "[4]", "value": "keratin 6a, Keratin 6b, and VIM"}]}, {"molecule": "Fc1ccc(-c2ccc3c(c2)[nH]c2ccncc23)cn1", "note": "[Flortaucipir]", "values": [{"measurement": "off-target binding", "setting": "MAO-B enzyme", "value": "binds the MAO-B enzyme in the brain"}]}, {"molecule": "Tau_1: DNA thioaptamer CCCCCCACGGTCTCCGCTCCACAAGTTCAC (DNA, backbone and methylation of C not given here; further chemistry not fully specified)", "values": [{"measurement": "Kd", "setting": "[1]", "value": "0.167 ± 0.015", "unit": "nM"}, {"measurement": "binding of Cy5-labeled aptamer to cells", "setting": "[2]", "value": "elevated binding levels with the hyperphosphorylative cells"}, {"measurement": "fraction of the thioaptamers present (abundance)", "setting": "[3]", "value": 20.6, "unit": "%"}, {"measurement": "Kd", "setting": "ReN-VM cells", "value": "318 ± 46.2", "unit": "nM"}, {"measurement": "possible binding targets by abundance score ranking", "setting": "[4]", "value": "keratin 6a, Keratin 6b, and VIM"}]}, {"molecule": "CC1=C(CO)C(=O)O[C@@H]([C@@H](C)[C@H]2CC[C@H]3[C@@H]4C[C@H]5O[C@]56[C@@H](O)C=CC(=O)[C@]6(C)[C@H]4CC[C@]23C)C1", "note": "[Withaferin A]", "values": [{"measurement": "binding site on vimentin", "setting": "tetrameric VIM", "value": "binds the conserved cysteine 382 residue on tetrameric VIM"}]}]}
